In patent US20210122730A1, “GLUCOCORTICOID RECEPTOR MODULATORS” (ORIC Pharmaceuticals, Inc., priority 2017, published 2021) one finds IC50 data, which are given here for 18 compounds.

The IC50 is the point on the concentration scale where inhibition reaches its midpoint. A low value points to greater potency.

The target of the first assay is T1, GR (Homo sapiens, UniProt P04150).
T1 construct: expressed in transfected cells; host or cells: CHO-K1
T1 sequence (P04150 1-777): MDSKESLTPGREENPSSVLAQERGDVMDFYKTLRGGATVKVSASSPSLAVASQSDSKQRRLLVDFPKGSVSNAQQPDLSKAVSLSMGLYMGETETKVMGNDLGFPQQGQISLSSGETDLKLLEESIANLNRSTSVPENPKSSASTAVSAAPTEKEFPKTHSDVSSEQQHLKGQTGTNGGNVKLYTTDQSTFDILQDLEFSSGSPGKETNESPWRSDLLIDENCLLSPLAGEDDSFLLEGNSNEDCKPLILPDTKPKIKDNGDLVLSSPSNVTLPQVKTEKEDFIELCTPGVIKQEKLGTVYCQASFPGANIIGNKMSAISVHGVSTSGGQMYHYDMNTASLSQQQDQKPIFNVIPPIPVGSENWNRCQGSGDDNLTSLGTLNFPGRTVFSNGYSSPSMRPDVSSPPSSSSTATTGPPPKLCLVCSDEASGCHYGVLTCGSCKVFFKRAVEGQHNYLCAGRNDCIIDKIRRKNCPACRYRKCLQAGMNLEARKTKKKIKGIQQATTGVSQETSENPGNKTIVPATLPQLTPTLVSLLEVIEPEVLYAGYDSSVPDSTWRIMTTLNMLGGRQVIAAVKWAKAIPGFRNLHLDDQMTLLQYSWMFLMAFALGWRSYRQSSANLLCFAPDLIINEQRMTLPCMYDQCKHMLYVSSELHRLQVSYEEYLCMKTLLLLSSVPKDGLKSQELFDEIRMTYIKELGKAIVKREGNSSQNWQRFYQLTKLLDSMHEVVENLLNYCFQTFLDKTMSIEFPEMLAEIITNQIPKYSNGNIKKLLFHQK
Description: In Vitro GR Luciferase Reporter Assay (antagonist mode, CHO-K1-GR-MMTV-Luc reporter cells). Type of assay: cell-based. The following applies: antagonist assay with 10 nM Dexamethasone, 18-24 hours. From the text:
Example A: In Vitro GR Luciferase Reporter Assay
Cell Line: CHO-K1-GR-MMTV-Luc reporter cells
Culture Media: DMEM (with phenol red)+10% FBS
Assay Media: DMEM (without phenol red)+10% CSS
Culture CHO-K1I-GR-MMTV-Luc reporter cells in 15 cm plates in Culture Media at conditions less than 90% confluence.
Prepare 200×DMSO 1:5 serial dilutions of control and test compounds in 96-well non-sterile V bottom plate in DMSO, 8serial dilutions for each compound.
Prepare 5× Assay Media diluted compound serial dilutions in 96-well non-sterile V bottom plate: Add 97.5 uL/well of Assay Media into 96-well then add 2.5 ul of 200× concentration of compounds and mix well.
Seed cells for Antagonist Assay: […] CHO-K1-GR-MMTV-Luc reporter cells were seeded in a Corning 3707 flat clear bottom 384-well white TC plate in 20 ul of Assay Media containing 12.5 nM Dexamethasone (final concentration=10 nM).
Add compounds: 5 ul of assay media diluted compounds were added to appropriate wells and followed a quick spin (1000 rpm, 10 sec) to bring media and cells to the bottom of plate. The plates were covered with SealMate film to avoid evaporation and placed in 37° C. incubator for approximately 18-24 hours.
Read plates: Equilibrate appropriate amount of Promega OneGlo luciferase reagent to room temperature. Remove the plates from incubator and add 25 uL of OneGlo reagent/well by multiple channel pipette and read the plates with Tecan F500 luminometer within 3 minutes.
The ability of the compounds disclosed herein to inhibit GR activity was quantified and the respective IC50 value was determined. Table 1and Table 2provide the cellular IC50 values of compounds disclosed herein.
Compound `Cc1ccc(S(=O)(=O)[C@H]2CCC3=Cc4c(cnn4-c4ccc(F)cc4)C[C@]3(C(=O)c3ccccn3)C2)cc1` [Example 1, ((4aS,6S)-1-(4-Fluorophenyl)-6-tosyl-1,4,5,6,7,8-hexahydro-4aH-benzo[f]indazol-4a-yl)(pyridin-2-yl)methanone] displayed an IC50 of no more than 100 nM.
The compound `Cc1ccc(S(=O)(=O)[C@@H]2CCC3=Cc4c(cnn4-c4ccc(F)cc4)C[C@]3(C(=O)c3ccccn3)C2)cc1` [Example 2, ((4aS,6R)-1-(4-Fluorophenyl)-6-tosyl-1,4,5,6,7,8-hexahydro-4aH-benzo[f]indazol-4a-yl)(pyridin-2-yl)methanone] had an IC50 of no more than 100 nM.
Same read-out and setting: the result for `Cn1cc(S(=O)(=O)[C@H]2CCC3=Cc4c(cnn4-c4ccc(F)cc4)C[C@]3(C(=O)c3cc(C(F)(F)F)ccn3)C2)cn1` [Example 3, ((4aS,6S)-1-(4-Fluorophenyl)-6-((1-methyl-1H-pyrazol-4-yl)sulfonyl)-1,4,5,6,7,8-hexahydro-4aH-benzo[f]indazol-4a-yl)(4-(trifluoromethyl)pyridin-2-yl)methanone] reads no more than 100 nM; that for `O=C(c1ccccc1)N(C1CC1)[C@H]1CCC2=Cc3c(cnn3-c3ccc(F)cc3)C[C@]2(C(=O)c2ccccn2)C1` [Example 6, N-Cyclopropyl-N-((4aS,6S)-1-(4-fluorophenyl)-4a-picolinoyl-4,4a,5,6,7,8-hexahydro-1H-benzo[f]indazol-6-yl)benzamide], no more than 100 nM.
With `O=C(c1ccccn1)[C@]12Cc3cnn(-c4ccc(F)cc4)c3C=C1CC[C@H](S(=O)(=O)N1CCCCC1)C2` [Example 7, [(4aS,6S)-1-(4-Fluorophenyl)-6-(1-piperidylsulfonyl)-5,6,7,8-tetrahydro-4H-benzo[f]indazol-4a-yl]-(2-pyridyl)methanone], the IC50 was no more than 100 nM.
`Cc1ccc(S(=O)(=O)[C@H]2CCC3=Cc4c(cnn4-c4ccc(F)cc4)C[C@]3(C(=O)c3nccs3)C2)cc1` [Example 8, ((4aS,6S)-1-(4-fluorophenyl)-6-tosyl-1,4,5,6,7,8-hexahydro-4aH-benzo[f]indazol-4a-yl)(thiazol-2-yl)methanone] came in with an IC50 of no more than 100 nM.
Same read-out and setting: the result for `Cc1ccc(S(=O)(=O)[C@@H]2CCC3=Cc4c(cnn4-c4ccc(F)cc4)C[C@]3(C(=O)c3nccs3)C2)cc1` [Example 9, ((4aS,6R)-1-(4-fluorophenyl)-6-tosyl-1,4,5,6,7,8-hexahydro-4aH-benzo[f]indazol-4a-yl)(thiazol-2-yl)methanone] reads no more than 100 nM; that for `O=C(c1ccccn1)[C@]12Cc3cnn(-c4ccc(F)cc4)c3C=C1CC[C@H](S(=O)(=O)c1ccc(C(F)(F)F)cc1)C2` [Example 10, ((4aS,6S)-1-(4-fluorophenyl)-6-((4-(trifluoromethyl)phenyl)sulfonyl)-1,4,5,6,7,8-hexahydro-4aH-benzo[f]indazol-4a-yl)(pyridin-2-yl)methanone], no more than 100 nM; that for `O=C(c1ccccn1)[C@]12Cc3cnn(-c4ccc(F)cc4)c3C=C1CC[C@@H](S(=O)(=O)c1ccc(C(F)(F)F)cc1)C2` [Example 11, ((4aS,6R)-1-(4-fluorophenyl)-6-((4-(trifluoromethyl)phenyl)sulfonyl)-1,4,5,6,7,8-hexahydro-4aH-benzo[f]indazol-4a-yl)(pyridin-2-yl)methanone], no more than 100 nM.
As to `O=C(c1nccs1)[C@]12Cc3cnn(-c4ccc(F)cc4)c3C=C1CC[C@H](S(=O)(=O)c1ccc(C(F)(F)F)cc1)C2` [Example 12, ((4aS,6S)-1-(4-fluorophenyl)-6-((4-(trifluoromethyl)phenyl)sulfonyl)-1,4,5,6,7,8-hexahydro-4aH-benzo[f]indazol-4a-yl)(thiazol-2-yl)methanone], the IC50 was in the range of 100 to 1000 nM.
For `O=C(c1nccs1)[C@]12Cc3cnn(-c4ccc(F)cc4)c3C=C1CC[C@@H](S(=O)(=O)c1ccc(C(F)(F)F)cc1)C2` [Example 13, ((4aS,6R)-1-(4-fluorophenyl)-6-((4-(trifluoromethyl)phenyl)sulfonyl)-1,4,5,6,7,8-hexahydro-4aH-benzo[f]indazol-4a-yl)(thiazol-2-yl)methanone], the IC50 lay in the range of 100 to 1000 nM.
Still for that read-out and setting: as for `O=C(c1cc(C(F)(F)F)ccn1)[C@]12Cc3cnn(-c4ccc(F)cc4)c3C=C1CC[C@H](S(=O)(=O)c1ccc(F)c(F)c1)C2` [Example 14, ((4aS,6S)-6-((3,4-difluorophenyl)sulfonyl)-1-(4-fluorophenyl)-1,4,5,6,7,8-hexahydro-4aH-benzo[f]indazol-4a-yl)(4-(trifluoromethyl)pyridin-2-yl)methanone], the figure is no more than 100 nM; as for `Cc1ccc(S(=O)(=O)[C@H]2CCC3=Cc4c(cnn4-c4ccc(F)cc4)C[C@]3(C(=O)c3cc(C(F)(F)F)ccn3)C2)cc1` [Example 15, ((4aS,6S)-1-(4-fluorophenyl)-6-tosyl-1,4,5,6,7,8-hexahydro-4aH-benzo[f]indazol-4a-yl)(4-(trifluoromethyl)pyridin-2-yl)methanone], no more than 100 nM.

Still in this assay, the particulars now being: antagonist mode, 10 nM Dexamethasone.
`C[C@@]1(S(=O)(=O)c2ccccc2)CCC2=Cc3c(cnn3-c3ccc(F)cc3)C[C@]2(C(=O)c2ccccn2)C1` (single isomer, unassigned) [Example 116, ((4aS,6R)-1-(4-Fluorophenyl)-6-methyl-6-(phenylsulfonyl)-1,4,5,6,7,8-hexahydro-4aH-benzo[f]indazol-4a-yl)(pyridin-2-yl)methanone or ((4aS,6S)-1-(4-fluorophenyl)-6-methyl-6-(phenylsulfonyl)-1,4,5,6,7,8-hexahydro-4aH-benzo[f]indazol-4a-yl)(pyridin-2-yl)methanone] came in with an IC50 of no more than 100 nM.
For `C[C@@]1(S(=O)(=O)c2ccccc2)CCC2=Cc3c(cnn3-c3ccc(F)cc3)C[C@]2(C(=O)c2ccccn2)C1` (single isomer, unassigned) [Example 117, ((4aS,6R)-1-(4-Fluorophenyl)-6-methyl-6-(phenylsulfonyl)-1,4,5,6,7,8-hexahydro-4aH-benzo[f]indazol-4a-yl)(pyridin-2-yl)methanone or ((4aS,6S)-1-(4-fluorophenyl)-6-methyl-6-(phenylsulfonyl)-1,4,5,6,7,8-hexahydro-4aH-benzo[f]indazol-4a-yl)(pyridin-2-yl)methanone], the IC50 was 100 to 1000 nM.
`Cn1cc(S(=O)(=O)C[C@@H]2CCC3=Cc4c(cnn4-c4ccc(F)cc4)C[C@]3(C(=O)c3cc(C(F)(F)F)ccn3)C2)cn1` (single isomer, unassigned) [Example 119] displayed an IC50 of no more than 100 nM.
`C[C@H]([C@H]1CCC2=Cc3c(cnn3-c3ccc(F)cc3)C[C@]2(C(=O)c2cc(C(F)(F)F)ccn2)C1)S(=O)(=O)c1cnn(C)c1` (single isomer, unassigned) [Example 120, ((4aR,6S)-1-(4-Fluorophenyl)-6-((R)-1-((1-methyl-1H-pyrazol-4-yl)sulfonyl)ethyl)-1,4,5,6,7,8-hexahydro-4aH-benzo[f]indazol-4a-yl)(4-(trifluoromethyl)pyridin-2-yl)methanone or ((4aR,6S)-1-(4-fluorophenyl)-6-((S)-1-((1-methyl-1H-pyrazol-4-yl)sulfonyl)ethyl)-1,4,5,6,7,8-hexahydro-4aH-benzo[f]indazol-4a-yl)(4-(trifluoromethyl)pyridin-2-yl)methanone] registered an IC50 of no more than 100 nM.
In turn, `C[C@H]([C@H]1CCC2=Cc3c(cnn3-c3ccc(F)cc3)C[C@]2(C(=O)c2cc(C(F)(F)F)ccn2)C1)S(=O)(=O)c1cnn(C)c1` (single isomer, unassigned) [Example 121, ((4aR,6S)-1-(4-Fluorophenyl)-6-((R)-1-((1-methyl-1H-pyrazol-4-yl)sulfonyl)ethyl)-1,4,5,6,7,8-hexahydro-4aH-benzo[f]indazol-4a-yl)(4-(trifluoromethyl)pyridin-2-yl)methanone or ((4aR,6S)-1-(4-fluorophenyl)-6-((S)-1-((1-methyl-1H-pyrazol-4-yl)sulfonyl)ethyl)-1,4,5,6,7,8-hexahydro-4aH-benzo[f]indazol-4a-yl)(4-(trifluoromethyl)pyridin-2-yl)methanone] gave an IC50 of no more than 100 nM.
